According to patent US20080293759A1, “Method for Treating Cancer Based on the Modulation of Calcineurin” (Centre National De La Recherche, priority 2005, published 2008):

Key:
NFAT2 = experiment: ICN1 leukemic cells in culture with CsA or ionomycin, NFAT2 western blot; type: cell-based, mouse; conditions: ICN1 leukemic cells maintained in culture for 60 minutes
Method: Phosphorylated and de-phosphorylated isoforms are indicated by coloured arrows.
Leukemia-derived primary cells and leukemia cell lines (TEL-JAK2, ICN1 and ERP15-14) were maintained in RPMI 1640 supplemented with 10% foetal calf serum, 100 U/ml penicillin, 100 μg/ml streptomycin, 2 mM glutamine (all from Life Technologies) and […] 2-βmercaptoethanol (Sigma).
Total cellular extracts prepared from cells obtained directly from diseased animals or control littermates or harvested at the indicated times following culture, were resolved by SDS-PAGE and subjected to immunoblot analysis with the indicated antibody (Ab). The NFAT1(sc-7296), NFAT2 (sc-7294), NFAT4 (sc-8321), STAT5 (C-17; sc-835) antibodies were purchased from Santa Cruz Biotechnology. The phosphotyrosine-STAT5 antibody (05-495) was purchased from Upstate Biotechnology. The pan-NFAT Ab (796) was kindly provided by Dr. Nancy Rice.

NFATc1, NFATc2, NFATc3 = experiment: Thymocytes ex vivo with CsA or ionomycin, NFAT western blot; type: cell-based, mouse; conditions: unstimulated thymocytes ex vivo, 1 μg/ml, 60 minutes

`C[C@H](CCC(=O)O)C[C@H](C)C[C@H](C)C(=O)/C=C(\O)[C@H](C)C[C@H](C)C/C=C/[C@@H](C)[C@@H](O)[C@@H](C)[C@@H](O)C[C@@H]1CC[C@@](C)([C@H]2CC[C@@](C)([C@@H](C)O)O2)O1` [ionomycin] was tested, and the “NFAT2 isoform migration (phosphorylation)” value (NFAT2) was “indistinguishable from that observed in ICN1 non-treated leukemic cells” and the “NFATc1, NFATc2, NFATc3 phosphorylation” value (NFATc1, NFATc2, NFATc3) was “fully dephosphorylated”.
